Test results taken from patent US9464113B2, “Anti-heparan sulfate peptides that block herpes simplex virus infection in vivo” (The Board of Trustees of the University of Illinois, priority 2010, dated 2016).

Test system: HSV-1 (KOS) gL86
Experiment: HSV-1 entry into primary human corneal fibroblasts (CF)
Assay type: cell-based, herpes simplex virus type-1
Settings: CF, 6 h, ONPG (FIG. 4A)
Description: HSV-1 entry was assayed as described in Shukla et al., Cell 99:13-22 (1999). CHO-K1 cells were grown in 6-well plates to subconfluence and then transfected with 2.5 μg of expression plasmids for gD receptors nectin-1 (pBG38), HVEM (pBec10), 3-OST-3 isoform (pDS43), or pCDNA3.1 (empty vector) using LipofectAMINE (Gibco/BRL). At 16 h post-transfection, the cells were replated into 96-well dishes for pre-incubation with peptides at different concentrations for 60 min at room temperature. In parallel, natural target cells (HeLa, CF, and RPE) were also pre-treated with the peptides for the same duration. In all cases, unbound peptides were removed after washing 3× with PBS. Thereafter, cells were infected for 6 h with a recombinant virus, HSV-1 (KOS) gL86, at multiple plaque forming units (PFUs) and β-galactosidase assays were performed using either a soluble substrate o-nitrophenyl-β-D-galactopyranoside (ONPG at 3.0 mg/ml; ImmunoPure, Pierce) or X-gal (Sigma). For the soluble substrate, the enzymatic activity was measured at 410 nm using a micro-plate reader (Spectra Max 190, Molecular Devices, Sunnyvale, Calif.). For the X-gal assay, cells were fixed (2% formaldehyde and 0.2% glutaraldehyde) and permeabilized (2 mM MgCl2, 0.01% deoxycholate, and 0.02% nonidet NP-40 (Sigma)). 1 ml of β-galactosidase reagent (1.0 mg/ml X-gal in ferricyanide buffer) was added to each well and incubated at 37° C. for 90 min before the cells were examined using bright field microscopy under the 20× objectives of the inverted microscope (Zeiss Axiovert 100 M).
The ability of the G1 and G2 peptides to block HSV-1 entry into natural target cells (HeLa and primary cultures of human CF) was compared. A similar dosage response curve was generated when HeLa (FIG. 2A) or CF (FIG. 2B) were pre-treated with G1 or G2 peptides during HSV-1 entry. […] HeLa cells (FIG. 2A) and primary cultures of human corneal fibroblasts (CF) (FIG. 2B) were tested. Cells in 96-well plates were pre-treated for 60 min with indicated mM concentrations of G1, G2, or Cp peptides. Mock-treated cells (abbreviated as C) served as a control. Pretreated cells were infected with a β galactosidase-expressing recombinant virus HSV-1 (KOS) HSV-1 gL86 (25 pfu/cell) for 6 hr. Viral entry was quantitated as described above in reference to FIG. 1. Confirmation of HSV-1 entry blocking activity of G1, G2, and control (Cp) peptides on a per cell basis was obtained after cells were infected as described above followed by X-gal (1.0 mg/ml) staining (Right panels), which yields an insoluble blue product upon hydrolysis by β-galactosidase expressed from the input viral genomes. […] Microscopy was performed using a 20× objective of Zeiss Axiovert 100.
To better understand the inhibitory potential of G1 and G2 peptides, synthetic short variants (10-mer) were synthesized that lacked the terminal non-positively charged amino acids. In case of G1, N-terminus L and C-terminus H residues were removed. For G2, the N-terminus flanking residues (M and P) were removed. Without being bound by theory, it is believed that 12-mer peptides are too short to adopt substantial secondary or tertiary structures and that the primary structure of those peptides, which includes a defined sequence or groupings of positively charged residues, plays a critical role in mediating inhibition of HSV-1 entry. Synthetic 10-mer versions of G1 and G2 (shown above) were tested for blocking HSV-1(KOS)gL86 entry into cultured CF. After 6 h, the viral entry was measured by ONPG assay as described in FIG. 1.
Alanine (A) scanning mutagenesis was performed to identify specific amino acid residues responsible for each peptide's function, stability, and conformation. O'Nuallain et al., Biochemistry 46:13049-13058 (2007). Twelve synthetic peptides were made whereby each residue of G2 was sequentially replaced with an alanine residue and corresponding changes in the G2 peptide were evaluated for their ability to affect viral entry (FIG. 4B). […]

Sequence	ability of 10-mer version to block HSV-1 entry compared with 12-mer
RRRRIRRRQK [10-mer version of G2]	very similar to the 12-mer in its ability to block HSV-1 entry
RSRTKIIRIR [10-mer version of G1]	almost completely lost its ability to block HSV-1 entry
